Data set [1] has as its target T1, ASIC1a (Homo sapiens, UniProt P78348).
T1 construct: expressed in transfected cells; host or cells: Xenopus laevis oocytes injected with capped cRNA
T1 sequence (P78348 1-528): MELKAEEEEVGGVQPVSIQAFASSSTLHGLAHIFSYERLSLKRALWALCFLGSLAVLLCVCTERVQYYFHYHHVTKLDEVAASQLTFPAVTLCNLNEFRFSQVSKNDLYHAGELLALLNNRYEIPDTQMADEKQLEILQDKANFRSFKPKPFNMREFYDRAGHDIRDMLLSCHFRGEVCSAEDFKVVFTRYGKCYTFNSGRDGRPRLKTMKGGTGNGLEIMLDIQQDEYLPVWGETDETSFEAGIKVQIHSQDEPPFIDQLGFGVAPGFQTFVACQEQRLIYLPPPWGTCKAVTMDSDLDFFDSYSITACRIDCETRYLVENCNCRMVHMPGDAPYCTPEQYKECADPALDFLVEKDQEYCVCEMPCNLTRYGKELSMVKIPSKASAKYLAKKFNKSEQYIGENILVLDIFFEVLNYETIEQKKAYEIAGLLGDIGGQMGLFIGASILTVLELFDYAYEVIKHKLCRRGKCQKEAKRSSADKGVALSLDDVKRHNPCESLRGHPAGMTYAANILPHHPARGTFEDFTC
The data set is described as follows: Inhibition of ASIC1a current in ASIC1a-expressing Xenopus laevis oocytes, two-electrode voltage clamp method. It counts as cell-based. The settings on record: current induced by shifting pH from 7.5 to 6.0; four to five oocytes. As to the method:
(1) Preparation of the ASIC1a-expressing Xenopus laevis oocytes
Using the RNeasy Protect Mini Kit (QIAGEN), total RNA was prepared from HEK293 cells. Subsequently, using the High Fidelity RNA PCR kit (TAKARA BIO INC.), first strand cDNA was synthesized, and using this first strand cDNA as a template, PCR was performed. The sense-strand primer for PCR was: […] (SEQ ID NO: 1) and the antisense-strand primer for PCR was: […] (SEQ ID NO: 2), and the PCR conditions were such that one cycle consisting of 95° C. for 30 seconds, 55° C. for 30 seconds, and 72° C. for 90 seconds was repeated 30 cycles. The PCR product was inserted into the PCR2.1 vector, and the resulting vector was further subcloned into the pcDNA3.1 (−) vector. From the ASIC1a plasmid which was linearized by the BamHI enzyme, capped cRNA was synthesized using the mMessage mMachine Kits (Ambion).

Data set [2] can be described thus: Cytotoxic test, alamar blue assay. It counts as cell-based. The settings on record: human, undifferentiated SH-SY5Y neuroblastoma cells, 24 hours exposure, concentration at which respiratory activity decreased to 50%, read-out: IC50 Cytotoxicity. As to the method: Using SH-SY5Y, a cytotoxic test was performed. In this test also, memantine and amiloride were used as control compounds.
The SH-SY5Y neuroblastoma cell line was purchased from American Type Culture Collection. The cells were cultured in the medium containing penicillin (100 U/mL), streptomycin (100 U/mL), and inactivated fetal bovine serum (Gibco). The cells were maintained in a CO2 incubator at 37° C. under the conditions of 95% air and 5% CO2.
Undifferentiated SH-SY5Y cells were exposed to various concentrations of Compounds 1, 2, and 3 for 24 hours. The alamar blue stock solution was transferred to a 96-well plate so that the final assay volume was 100 μL/well with a final alamar blue concentration of 10%. Six hours later, reduced alamar blue was measured at a wavelength of 570 nm. As to the survival rate (%), assuming that the mitochondrial respiratory activity in the drug-free cells as 100%, the respiratory activity of the cells exposed to Compounds 1, 2, and 3 for 24 hours was expressed as relative values.

Data set [3] addresses NR1/NR2A (Rattus norvegicus, UniProt P35439+Q00959). The data set is described as follows: Inhibition of NMDA receptor NR1/NR2A activity in Xenopus laevis oocytes, two-electrode voltage clamp method.
Procedure: The effect of the compound of the present invention on NMDA receptors was measured by the two-electrode voltage clamp method.
(1) Preparation of the NMDA receptor-expressing Xenopus laevis oocytes
Into the oocytes, cRNA of the NR1 subunit and cRNA of the NR2 subunit of the NMDA receptor were injected at a ratio of 1:5 (0.1 to 4 ng of NR1 and 0.5 to 20 ng of NR2), whereby the oocytes expressing NMDA receptors were obtained.
(2) The oocytes thus obtained were cultured in the medium (96 mM NaCl, 2 mM KCl, 1 mM MgCl2, 1.8 mM CaCl2, 5 mM Na-HEPES, 2.5 mM sodium pyruvate, 50 mg/mL gentamicin, pH=7.5) at 19° C. for 1 to 3 days.
On the day of measurement, after injecting K^+-BAPTA into the oocytes, the activity of the receptor was measured by the two-electrode voltage clamp method to be described later using a recording buffer (96 mM NaCl, 2 mM KCl, 1.8 mM BaCl2, 10 mM Na-HEPES, pH=7.5).
Among them, because NR1/NR2A is considered to be most prevalently expressed in the brain, the inhibitory effect on the activity of NR1/NR2A was measured in the following tests.
(3) Two-electrode voltage clamp method
Using the two-electrode voltage clamp amplifier CEZ-1250 (NIHON KOHDEN CORPORATION), the electric current which has passed through the entire oocyte membrane was measured. Electrodes were filled with 3M potassium chloride and the resistance was set at 0.4 to 4 MΩ. Also, for measurement, glutamic acid and glycine were added as the NMDA receptor agonists.
(4) To the oocytes obtained by the aforementioned method, various concentrations of compounds were added. Setting the voltage clamp at Vh=−70 mV (resting membrane potential), the inhibitory effect on the activity of NR1/NR2A was measured.
The values obtained from four to five oocytes were averaged out and the resulting value ±S.E.M. was obtained as the measurement value.

NR1/NR2A, sequence (Q00959 23-1464, other chains not shown): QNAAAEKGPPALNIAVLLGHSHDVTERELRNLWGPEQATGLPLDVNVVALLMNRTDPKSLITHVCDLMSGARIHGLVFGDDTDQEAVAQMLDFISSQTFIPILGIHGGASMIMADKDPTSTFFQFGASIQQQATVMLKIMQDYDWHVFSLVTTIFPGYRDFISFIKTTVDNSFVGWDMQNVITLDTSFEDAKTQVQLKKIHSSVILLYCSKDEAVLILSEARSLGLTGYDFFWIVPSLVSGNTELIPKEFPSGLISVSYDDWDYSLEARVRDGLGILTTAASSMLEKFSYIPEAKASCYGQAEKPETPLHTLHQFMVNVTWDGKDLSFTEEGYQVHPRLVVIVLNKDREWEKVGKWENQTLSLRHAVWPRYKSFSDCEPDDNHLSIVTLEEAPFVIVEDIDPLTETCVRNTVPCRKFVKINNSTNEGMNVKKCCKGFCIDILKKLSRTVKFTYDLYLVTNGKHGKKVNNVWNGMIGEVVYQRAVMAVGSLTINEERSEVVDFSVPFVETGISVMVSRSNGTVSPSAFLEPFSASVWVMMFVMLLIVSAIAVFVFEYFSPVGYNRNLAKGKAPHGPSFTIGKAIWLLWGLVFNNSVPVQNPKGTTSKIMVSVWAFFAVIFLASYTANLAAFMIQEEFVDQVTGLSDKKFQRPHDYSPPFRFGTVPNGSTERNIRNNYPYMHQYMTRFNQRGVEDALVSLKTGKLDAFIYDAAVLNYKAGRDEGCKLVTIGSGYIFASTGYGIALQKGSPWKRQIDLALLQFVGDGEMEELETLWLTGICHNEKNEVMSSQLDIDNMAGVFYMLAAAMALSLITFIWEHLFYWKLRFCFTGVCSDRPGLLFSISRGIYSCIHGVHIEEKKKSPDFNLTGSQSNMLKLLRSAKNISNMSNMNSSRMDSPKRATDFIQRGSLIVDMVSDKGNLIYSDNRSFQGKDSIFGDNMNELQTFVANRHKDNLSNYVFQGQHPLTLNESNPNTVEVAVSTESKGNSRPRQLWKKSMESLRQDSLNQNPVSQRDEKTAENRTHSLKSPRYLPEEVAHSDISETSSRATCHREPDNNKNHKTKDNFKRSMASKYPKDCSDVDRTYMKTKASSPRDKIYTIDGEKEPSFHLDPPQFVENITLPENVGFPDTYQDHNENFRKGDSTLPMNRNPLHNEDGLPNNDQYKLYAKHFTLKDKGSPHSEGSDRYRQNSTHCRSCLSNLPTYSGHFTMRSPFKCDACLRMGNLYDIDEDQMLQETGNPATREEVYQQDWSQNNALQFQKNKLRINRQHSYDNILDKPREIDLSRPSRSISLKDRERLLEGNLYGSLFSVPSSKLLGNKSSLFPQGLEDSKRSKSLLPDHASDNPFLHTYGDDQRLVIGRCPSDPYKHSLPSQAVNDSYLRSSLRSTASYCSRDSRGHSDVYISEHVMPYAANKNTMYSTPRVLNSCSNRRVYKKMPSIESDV

Take `N=C(NCCc1ccccc1)NC(=N)NNC(=O)c1nc(Cl)c(N)nc1N` [Compound 1]: the IC50 turned out to be 4.7 µM in data set [1] and 3.5 µM in data set [3]. For the same compound, in data set [2], the IC50 at 24 h amounted to 2680 µM.

With `N=C(N)NC(=O)c1nc(Cl)c(N)nc1N` [Amiloride, reference compound], the IC50 at 24 h in data set [2] worked out at 563 µM. The IC50 in data set [3] is 117 µM.

Turning to `CC12CC3CC(C)(C1)CC(N)(C3)C2` [Memantine, reference compound], the “IC50 ASIC1a” value in data set [1] is recorded as “no effect”. In data set [2], the IC50 at 24 h was 146 µM.

Regarding `N=C(NCCc1ccc(Cl)cc1)NC(=N)NNC(=O)c1nc(Cl)c(N)nc1N` [Compound 2, 1-(3,5-diamino-6-chloropyrazinamide)-5-[2-(4-chlorophenyl)ethyl]biguanide], the IC50 was found to be 0.49 µM in data set [1] and 0.23 µM in data set [3]. For the same compound, the IC50 at 24 h in data set [2] came to 978 µM.

Take `N=C(NCCc1ccc(Cl)c(Cl)c1)NC(=N)NNC(=O)c1nc(Cl)c(N)nc1N` [Compound 3]: the half-inhibitory concentration (IC50) in data set [1] is 0.21 µM; in data set [3], 0.3 µM. For the same compound, in data set [2], the IC50 at 24 h came out at 277 µM.

Source of the values: patent US8895564B2, “Biguanide derivative compound” (Nihon University, priority 2010, dated 2014).
